Results on one compound are retold here after patent US12097179B2, “Carbazole derivatives for the treatment of fibrotic diseases and related symptoms, and conditions thereof” (Raziel Therapeutics Ltd., priority 2015, dated 2024).

In one experiment the test system is scar formation in pigs. Description: Remote effect of local s.c. fat injection on scar formation in pigs (RZL-012 vs Kythera/Kybella). In kind it is in vivo. To be noted: pig; for Collagen fibers in scar-tissue (H & E histology): compared with Kythera scar tissue. The source says:
The objective of this study is to evaluate the remote effect on local injection of RZL-012 of the invention (5-(3,6-dibromo-9H-carbazol-9-yl)-N,N,N-trimethylpentan-1-aminium) into the s.c. fat, on scar formation in pigs, compared with Kybella (an injectable formulation of Deoxycholate developed by Kythera) an agent that bluntly destroys s.c. fat.
• 1. Kythera preparation (according to published formulation): an aqueous solution of 5% Phosphatidylcholine, 4.75% Sodium deoxycholate and 0.9% Benzyl Alcohol. • 2. RZL-012 of the invention (5-(3,6-dibromo-9H-carbazol-9-yl)-N,N,N-trimethylpentan-1-aminium) of the invention preparation: 5.0% (w/v) RZL-012 in the below indicated formulation: […]
Eighty kilogram pigs were injected with either Kythera or RZL-012 of the invention preparation, into the s.c. fat (1 cm depth, 27 G needle), at 10 sites, divided into two clusters, on the right flank only. The injection at each site was of a volume of 0.5 ml. In addition, a cut through the s.c. fat was made at the midline of each pig at the right and at the left flank.
Animals were housed in the animal unit of Biotechfarm, Israel and fed on a diet weighing 2% of body weight (B.W.) per day divided to two meals, based on the last effective weekly body weighing.
After 2 months from the day of treatment, the animals were sacrificed; the scars on both sides were photographed before and after making a cross section in the middle of each scar. Thereafter, tissue samples of all cross-sections were formalin-fixed and processed for H & E histology staining.

For a further experiment, the system named is kidney fibrosis. Put plainly: Unilateral ureteral ligation (UUO) kidney fibrosis model. The experiment is classed as in vivo, rat. To be noted: male SD rats, RZL-012 15 mg s.c. into fat at Day 14 and Day 42, sacrifice 8 weeks after UUO, vs Vehicle. As to the method:
• Animals: Male SD Rats, 250 g. • Induction of kidney fibrosis: Overnight fasted rats were anesthetized (a mixture of Ketamine 20 mg/kg and Xylazin 2 mg/kg IP). The abdominal cavity was exposed via a midline incision up to 0.5-1 cm before penis about 3 cm along. Then the bladder was lifted out and epididymal fat was remoted. The left ureter was ligated at two points with 4-0 sutures. The wound was closed in layers with the same sutures. Then animals were returned to the cages. […] The tissue sections were stained with Masson-Trichrome which enable a distinction between fibrotic tissue (staining collagen fiber in Blue) and normal viable tissue (Purple-Red) (see FIG. 6C). • Quantification of kidney fibrosis: In order to quantify, in an unbiased way, the fibrotic response in RZL-treated vs. non-treated rats, the dimensions of the fibrotic layer surrounding aortic blood vessel, were measured. All aortic vessels in each affected kidney were analyzed in the following way: The vessel wall consists of two components, the usual Muscular layer and an outer layer, excessively rich in collagen, in these kidneys, hereby defined as “Adventitia” (FIG. 6C). The net width of the adventitia and that of the Muscular layer were calculated as follows: […]

As for `C[N+](C)(C)CCCCCn1c2ccc(Br)cc2c2cc(Br)ccc21` [RZL-012, 5-(3,6-dibromo-9H-carbazol-9-yl)-N,N,N-trimethylpentan-1-aminium], the “Macroscopic view of the scar at the left, non-treated side” value in the experiment on scar formation in pigs (2 months after s.c. fat injection on right flank only, external view, compared with Kythera treated pig) is “much finer”. The “Scar tissue seen after a cross section through the scar (macroscopic)” value in the experiment on scar formation in pigs (2 months sacrifice, cross-section through the middle of the scar, non-treated side (L)) is “no apparent scare tissue was observed”. Moreover, the “Difference in the scar tissue width” value in the experiment with scar formation in pigs (2 months, H & E histology, careful measurement, RZL-012 vs Kythera treated pig) is 4-5 times. In addition, the “Collagen fibers in scar-tissue (H & E histology)” value is “less collagen fibers” with scar formation in pigs (2 months, X20 objective magnification) and “less collagen fibers” in the experiment on scar formation in pigs (2 months, X40 objective magnification). Also, the “Width of fibrotic tissue (scar histology, H & E)” value in the experiment on scar formation in pigs (2 months, both sides, X10 objective magnification, RZL-012 vs Kythera treated pig) is reported as “much thinner”. Also, in the experiment on kidney fibrosis, the “Kidney fibrosis (Adventitia/Muscular layers ratio, Masson-Trichrome)” value is reported as “significant inhibition of kidney fibrosis”.
